What all share (experiment): DTP human tumour cell line panel, 48 h
The subject of experiment [1] is K-562 leukemia.
For experiment [2], the system named is U251 CNS.
Experiment [3] concerns OVCAR-8 ovarian.
Experiment [4] deals with NCI-H522 lung.
For experiment [5], the system named is NCI-H460 lung.
For experiment [6], the system named is RPMI-8226 leukemia.
Experiment [7] has as its system SK-MEL-2 melanoma.
For experiment [8], the system named is HCC-2998 colon.
The test system of experiment [9] is SN12C renal.
Experiment [10] deals with HCT-116 colon.
Experiment [11] relates to CCRF-CEM leukemia.
Experiment [12] has as its system EKVX NSCLC.
Experiment [13] concerns UO-31 renal.

Molecules are shown by their SMILES.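 The compound was tested at five concentrations on cells cultured in 96-well plates, with a 48-hour exposure period. GI50 = concentration required for 50% inhibition of growth. Definition used: TGI = concentration required for complete inhibition of growth.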 Where a SMILES comes first, the peptide text is derived from it. The star is where a group is joined. Cbz = O=C(OCc1ccccc1)* Some results are limits rather than exact numbers.

Take `Cc1cc(C)c2c(-c3ccccc3)cc(=O)[nH]c2c1`: the TGI in [1], in [2], in experiment [3], in experiment [4], in experiment [5] and in experiment [6] was greater than 100 µM throughout. Further, the TGI in [7], in [8], in experiment [9], in [10], in experiment [11] and in [12] was greater than 100 µM each time.
In the case of `CCOC(=O)N1CCC2(CC1)C[C@](Sc1ccccc1)(C(C)=O)[C@H](C)O2`, the TGI in [1], in experiment [2], in experiment [13], in [3], in [4] and in [5] was greater than 100 µM throughout. Also, the TGI in experiment [6], in experiment [7], in [8], in experiment [11] and in experiment [12] was greater than 100 µM in each case.
Consider `O=[N+]([O-])C(/C(Cl)=C(/Cl)N1CCOCC1)=C1\Nc2ccccc2O1`, for which the TGI in experiment [1], in experiment [2], in experiment [13], in experiment [3], in experiment [5] and in experiment [6] was greater than 100 µM in each case. Further, the TGI in experiment [7], in [8], in experiment [9], in [10], in [11] and in experiment [12] was greater than 100 µM each time.
Regarding `CN(C)c1ccc(-c2c(C#N)c(-c3ccccc3)n(NS(=O)(=O)c3ccccc3)c(=O)c2C#N)cc1`, the TGI was greater than 100 µM in experiment [1]; greater than 100 µM in [2]; greater than 100 µM in [3]; greater than 100 µM in experiment [4]; greater than 100 µM in [5]; 48.6 µM in [6]. The TGI is greater than 100 µM in experiment [7]; greater than 100 µM in [8]; greater than 100 µM in experiment [9]; greater than 100 µM in experiment [10]; 83.5 µM in experiment [11]; greater than 100 µM in experiment [12].
Take `C/C(=N/NC(=S)N1CCCCCC1)c1cccc(/C(C)=N\NC(=S)N2CCCCCC2)n1`: the TGI in experiment [1] was 6.58 µM; in experiment [2], 4.77 µM; in experiment [13], 3.39 µM; in experiment [3] it was 3.11 µM; in experiment [4] it was 6.42 µM; in [5], 6.78 µM. Besides, the TGI was 5.33 µM in [6]; 3.81 µM in experiment [7]; 6.38 µM in experiment [8]; 4.57 µM in experiment [9]; 3.48 µM in [10]; 7.98 µM in experiment [12].
As for `CC(C)(C)c1ccc(O)c(C(O)c2ccccn2)c1` (stereo not drawn), the TGI in experiment [1], in experiment [2], in [13], in [3], in experiment [4] and in [5] was greater than 100 µM each time. Also, the TGI in [6] is greater than 100 µM; in experiment [8] it was 85.9 µM; in experiment [9], greater than 100 µM; in experiment [10], greater than 100 µM; in experiment [11] it was greater than 100 µM; in experiment [12], greater than 100 µM.
As for `O=C(CSc1nc2ccccc2c(=O)n1-c1ccccc1)N=Nc1c(O)[nH]c2ccc(Br)cc12`, the TGI in experiment [1] stood at 10.3 µM; in experiment [2] it was 4.26 µM; in [13] it was 6.64 µM; in experiment [3], 3.99 µM; in experiment [4], 9.69 µM; in experiment [5], 41.8 µM. Besides, the TGI in experiment [6] is greater than 38 µM; in [7], 47.1 µM; in [8] it was greater than 100 µM; in [9] it was 4.22 µM; in experiment [11] it was greater than 100 µM; in [12], 9.83 µM.
In the case of `CN(C(=O)Cc1cc(Cl)c(Cl)cc1NC(=O)CCCN)[C@H]1CCCC[C@@H]1N1CCCC1`, the TGI was greater than 100 µM in experiment [1]; 35.3 µM in experiment [2]; greater than 100 µM in [13]; greater than 100 µM in experiment [3]; 29.8 µM in [4]; greater than 100 µM in experiment [6]. The TGI in experiment [7] was 40.5 µM; in [8] it was 37.1 µM; in experiment [9], greater than 100 µM; in [10], greater than 100 µM; in experiment [12], greater than 100 µM.
`CCOC(=O)CCC(NC(=O)C(CC(=O)OC)NC(=O)OCc1ccccc1)C(=O)NC(CC(=O)OC)C(=O)NC(CCC(=O)OCC)C(=O)NC(CC(=O)OC)C(=O)NC(CCC(=O)OCC)C(=O)NC(CC(=O)OCC)C(=O)OCC` (stereo not drawn) (Cbz-D(OMe)E(OEt)D(OMe)E(OEt)D(OMe)E(OEt)D(OEt)-OEt; configuration not given here): the TGI in experiment [1], in experiment [2], in experiment [13], in experiment [3], in [4] and in [5] was greater than 100 µM throughout. Moreover, the TGI in [6], in experiment [7], in [8], in [9], in [10] and in experiment [11] was greater than 100 µM in each case.
Turning to `[N-]=[N+]=NC1C(Cl)C(=O)NC(=O)N1[C@H]1C[C@H](O)[C@@H](CO)O1` (stereo partly drawn), the TGI is greater than 100 µM in experiment [1]; greater than 100 µM in [2]; greater than 100 µM in experiment [13]; greater than 100 µM in experiment [3]; 36.2 µM in experiment [4]; greater than 100 µM in experiment [5]. Moreover, the total growth inhibition concentration (TGI) in experiment [6], in [7], in experiment [8], in experiment [9], in experiment [11] and in [12] was greater than 100 µM each time. Besides, the GI50 in experiment [4] was 5.31 µM; in [6], 71.9 µM; in experiment [11], 26.3 µM.
Turning to `CN(C)N1C(=C(C#N)C#N)C(c2ccccc2)CC1C#N` (stereo not drawn), the TGI in [1], in experiment [2], in [13], in experiment [3], in experiment [4] and in experiment [6] was greater than 100 µM in each case. Besides, the TGI in experiment [7], in experiment [8], in experiment [9], in [10], in experiment [11] and in [12] was greater than 100 µM in each case.

For the origin of these results see PubChem BioAssay (NCI).
